# ChEMBL document CHEMBL1275550, “In vitro activity of doripenem, a carbapenem for the treatment of challenging infections caused by gram-negative bacteria, against recent clinical isolates from the United States” (2008)
# Columns and labels:
# Proteus mirabilis [1] = assay: Antimicrobial activity against Non-ESBL Proteus mirabilis by broth microdilution method; type: functional
# Acinetobacter [2] = assay: Antimicrobial activity against imipenem susceptible Acinetobacter assessed as resistant isolate by broth microdilution method; type: functional
# Pseudomonas aeruginosa [3] = assay: Antimicrobial activity against imipenem non-susceptible Pseudomonas aeruginosa assessed as resistant isolate by broth microdilution method; type: functional
# Serratia marcescens [4] = assay: Antimicrobial activity against Ceftazidime non-susceptible Serratia marcescens assessed as susceptible isolate by broth microdilution method; type: functional
# Citrobacter [5] = assay: Antimicrobial activity against Citrobacter with nonderepressed AmpC beta-lactamsae by broth microdilution method; type: functional
# Pseudomonas aeruginosa [6] = assay: Antimicrobial activity against Ceftazidime non-susceptible Pseudomonas aeruginosa assessed as resistant isolate by broth microdilution method; type: functional
# Serratia marcescens [7] = assay: Antimicrobial activity against Ceftazidime susceptible Serratia marcescens assessed as intermediate isolate by broth microdilution method; type: functional
# Citrobacter [8] = assay: Antimicrobial activity against Citrobacter with derepressed AmpC beta-lactamsae assessed as intermediate isolate by broth microdilution method; type: functional
# Pseudomonas aeruginosa [9] = assay: Antimicrobial activity against Pseudomonas aeruginosa isolated from patient by broth microdilution method
# Pseudomonas aeruginosa [10] = assay: Antimicrobial activity against Ceftazidime susceptible Pseudomonas aeruginosa assessed as intermediate isolate by broth microdilution method; type: functional
# Citrobacter [11] = assay: Antimicrobial activity against Citrobacter with nonderepressed AmpC beta-lactamsae assessed as intermediate isolate by broth microdilution method; type: functional
# Citrobacter [12] = assay: Antimicrobial activity against Citrobacter with nonderepressed AmpC beta-lactamsae assessed as resistant isolate by broth microdilution method; type: functional
# Enterobacteriaceae [13] = assay: Antimicrobial activity against ceftazidime-susceptible Enterobacteriaceae assessed as susceptible isolate by broth microdilution method; type: functional
# Pseudomonas aeruginosa [14] = assay: Antimicrobial activity against imipenem susceptible Pseudomonas aeruginosa assessed as intermediate isolate by broth microdilution method; type: functional
# Serratia marcescens [15] = assay: Antimicrobial activity against Ceftazidime non-susceptible Serratia marcescens by broth microdilution method; type: functional
# Pseudomonas aeruginosa [16] = assay: Antimicrobial activity against imipenem susceptible Pseudomonas aeruginosa by broth microdilution method; type: functional
# Serratia marcescens [17] = assay: Antimicrobial activity against Ceftazidime susceptible Serratia marcescens assessed as susceptible isolate by broth microdilution method; type: functional
# Klebsiella pneumoniae [18] = assay: Antimicrobial activity against ESBL producing Klebsiella pneumoniae by broth microdilution method; type: functional
# Proteus mirabilis [19] = assay: Antimicrobial activity against ESBL producing Proteus mirabilis assessed as susceptible isolate by broth microdilution method; type: functional
# Citrobacter [20] = assay: Antimicrobial activity against Citrobacter with derepressed AmpC beta-lactamsae by broth microdilution method; type: functional
# Klebsiella pneumoniae [21] = assay: Antimicrobial activity against Non-ESBL Klebsiella pneumoniae assessed as intermediate isolate by broth microdilution method; type: functional
# Acinetobacter [22] = assay: Antimicrobial activity against imipenem susceptible Acinetobacter assessed as susceptible isolate by broth microdilution method; type: functional
# Pseudomonas aeruginosa [23] = assay: Antimicrobial activity against Ceftazidime susceptible Pseudomonas aeruginosa by broth microdilution method; type: functional
# Proteus mirabilis [24] = assay: Antimicrobial activity against Non-ESBL Proteus mirabilis assessed as resistant isolate by broth microdilution method; type: functional
# Klebsiella pneumoniae [25] = assay: Antimicrobial activity against Non-ESBL Klebsiella pneumoniae by broth microdilution method; type: functional
# Escherichia coli [26] = assay: Antimicrobial activity against Non-ESBL Escherichia coli assessed as susceptible isolate by broth microdilution method; type: functional
# Escherichia coli [27] = assay: Antimicrobial activity against ESBL producing Escherichia coli assessed as susceptible isolate by broth microdilution method; type: functional
# Acinetobacter [28] = assay: Antimicrobial activity against imipenem non-susceptible Acinetobacter assessed as susceptible isolate by broth microdilution method; type: functional
# Escherichia coli [29] = assay: Antimicrobial activity against Non-ESBL Escherichia coli by broth microdilution method; type: functional
# Enterobacteriaceae [30] = assay: Antimicrobial activity against Ceftazidime non-susceptible Enterobacteriaceae assessed as resistant isolate by broth microdilution method; type: functional
# Pseudomonas aeruginosa [31] = assay: Antimicrobial activity against imipenem non-susceptible Pseudomonas aeruginosa assessed as intermediate isolate by broth microdilution method; type: functional
# Acinetobacter [32] = assay: Antimicrobial activity against imipenem susceptible Acinetobacter assessed as intermediate isolate by broth microdilution method; type: functional
# Enterobacter cloacae = assay: Antimicrobial activity against Enterobacter cloacae with nonderepressed AmpC beta-lactamsae by broth microdilution method; type: functional
# Pseudomonas aeruginosa [33] = assay: Antimicrobial activity against Ceftazidime susceptible Pseudomonas aeruginosa assessed as resistant isolate by broth microdilution method; type: functional
# Enterobacteriaceae [34] = assay: Antimicrobial activity against Ceftazidime non-susceptible Enterobacteriaceae by broth microdilution method; type: functional
# Klebsiella pneumoniae [35] = assay: Antimicrobial activity against Non-ESBL Klebsiella pneumoniae assessed as susceptible isolate by broth microdilution method; type: functional
# Enterobacteriaceae [36] = assay: Antimicrobial activity against Ceftazidime non-susceptible Enterobacteriaceae assessed as intermediate isolate by broth microdilution method; type: functional
# Serratia marcescens [37] = assay: Antimicrobial activity against Ceftazidime susceptible Serratia marcescens by broth microdilution method; type: functional
# Serratia marcescens [38] = assay: Antimicrobial activity against Ceftazidime susceptible Serratia marcescens assessed as resistant isolate by broth microdilution method; type: functional
# Escherichia coli [39] = assay: Antimicrobial activity against Escherichia coli assessed as susceptible isolate by broth microdilution method; type: functional
# Serratia marcescens [40] = assay: Antimicrobial activity against Serratia marcescens assessed as susceptible isolate by broth microdilution method; type: functional
# Streptococcus pneumoniae = assay: Antimicrobial activity against penicillin-resistant Streptococcus pneumoniae by broth microdilution method; type: functional; conditions: Streptococcus pneumoniae
# Pseudomonas aeruginosa [41] = assay: Antimicrobial activity against Pseudomonas aeruginosa by broth microdilution method; type: functional
# Staphylococcus = assay: Antimicrobial activity against methicillin-resistant coagulase-negative Staphylococcus by broth microdilution method; type: functional
# Proteus mirabilis [42] = assay: Antimicrobial activity against Proteus mirabilis assessed as susceptible isolate by broth microdilution method; type: functional
# Klebsiella pneumoniae [43] = assay: Antimicrobial activity against Klebsiella pneumoniae assessed as susceptible isolate by broth microdilution method; type: functional
# Pseudomonas aeruginosa [44] = assay: Antimicrobial activity against Pseudomonas aeruginosa assessed as susceptible isolate by broth microdilution method; type: functional
# Acinetobacter [45] = assay: Antimicrobial activity against Acinetobacter assessed as susceptible isolate by broth microdilution method; type: functional
# Escherichia coli [46] = assay: Antimicrobial activity against Escherichia coli by broth microdilution method; type: functional
compound,measurement,setting,value
CC(C)(O/N=C(\C(=O)N[C@@H]1C(=O)N2C(C(=O)[O-])=C(C[n+]3ccccc3)CS[C@H]12)c1csc(N)n1)C(=O)O [CEFTAZIDIME],MIC,Proteus mirabilis [1],≤ 0.03 µg/mL
same,MIC50,Proteus mirabilis [1],≤ 0.03 µg/mL
same,MIC90,Proteus mirabilis [1],0.06 µg/mL
same,Activity,Acinetobacter [2],27.7%
same,Activity,Pseudomonas aeruginosa [3],18.4%
same,Activity,Serratia marcescens [4],0%
same,MIC50,Citrobacter [5],0.25 µg/mL
same,MIC90,Citrobacter [5],1 µg/mL
same,Activity,Pseudomonas aeruginosa [6],76.4%
same,Activity,Serratia marcescens [7],0%
same,Activity,Citrobacter [8],0%
same,Activity,Pseudomonas aeruginosa [9],2.3%
same,Activity,Pseudomonas aeruginosa [10],0%
same,Activity,Citrobacter [11],0.4%
same,Activity,Citrobacter [12],1.3%
same,Activity,Enterobacteriaceae [13],100%
same,Activity,Pseudomonas aeruginosa [14],2.2%
same,MIC,Serratia marcescens [15],> 32 µg/mL
same,MIC50,Serratia marcescens [15],> 32 µg/mL
same,MIC90,Serratia marcescens [15],> 32 µg/mL
same,MIC50,Pseudomonas aeruginosa [16],2 µg/mL
same,MIC90,Pseudomonas aeruginosa [16],8 µg/mL
same,Activity,Serratia marcescens [17],100%
same,MIC50,Klebsiella pneumoniae [18],> 32 µg/mL
same,MIC90,Klebsiella pneumoniae [18],> 32 µg/mL
same,Activity,Proteus mirabilis [19],50%
same,MIC,Citrobacter [20],> 32 µg/mL
same,MIC50,Citrobacter [20],> 32 µg/mL
same,MIC90,Citrobacter [20],> 32 µg/mL
same,Activity,Klebsiella pneumoniae [21],0.3%
same,Activity,Acinetobacter [22],66.8%
same,MIC50,Pseudomonas aeruginosa [23],2 µg/mL
same,MIC90,Pseudomonas aeruginosa [23],4 µg/mL
same,Activity,Proteus mirabilis [24],0.3%
same,MIC50,Klebsiella pneumoniae [25],0.12 µg/mL
same,MIC90,Klebsiella pneumoniae [25],0.5 µg/mL
same,Activity,Escherichia coli [26],98.6%
same,Activity,Escherichia coli [27],33.3%
same,Activity,Acinetobacter [28],15.7%
same,MIC50,Escherichia coli [29],0.12 µg/mL
same,MIC90,Escherichia coli [29],0.25 µg/mL
same,Activity,Enterobacteriaceae [30],92.4%
same,Activity,Pseudomonas aeruginosa [31],5.3%
same,Activity,Acinetobacter [32],5.5%
same,MIC50,Enterobacter cloacae,0.25 µg/mL
same,MIC90,Enterobacter cloacae,2 µg/mL
same,Activity,Pseudomonas aeruginosa [33],0%
same,MIC50,Enterobacteriaceae [34],> 32 µg/mL
same,MIC90,Enterobacteriaceae [34],> 32 µg/mL
same,Activity,Klebsiella pneumoniae [35],99.2%
same,Activity,Enterobacteriaceae [36],7.6%
same,MIC50,Serratia marcescens [37],0.12 µg/mL
same,MIC90,Serratia marcescens [37],0.5 µg/mL
same,Activity,Serratia marcescens [38],0%
C[C@@H](O)[C@H]1C(=O)N2C(C(=O)O)=C(S[C@@H]3CN[C@H](CNS(N)(=O)=O)C3)[C@H](C)[C@H]12 [DORIPENEM],MIC50,Proteus mirabilis [1],0.12 µg/mL
same,MIC90,Proteus mirabilis [1],0.5 µg/mL
same,Activity,Serratia marcescens [4],100%
same,MIC50,Citrobacter [5],0.03 µg/mL
same,MIC90,Citrobacter [5],0.06 µg/mL
same,Activity,Escherichia coli [39],99.8%
same,Activity,Serratia marcescens [40],98.7%
same,Activity,Enterobacteriaceae [13],99.7%
same,MIC50,Serratia marcescens [15],0.12 µg/mL
same,MIC90,Serratia marcescens [15],0.25 µg/mL
same,MIC50,Pseudomonas aeruginosa [16],0.25 µg/mL
same,MIC90,Pseudomonas aeruginosa [16],1 µg/mL
same,Activity,Serratia marcescens [17],98.6%
same,MIC50,Klebsiella pneumoniae [18],0.03 µg/mL
same,MIC90,Klebsiella pneumoniae [18],0.12 µg/mL
same,Activity,Proteus mirabilis [19],100%
same,MIC50,Citrobacter [20],0.06 µg/mL
same,MIC90,Citrobacter [20],0.06 µg/mL
same,MIC50,Streptococcus pneumoniae; read-out: MIC50,0.5 µg/mL
same,MIC90,Streptococcus pneumoniae; read-out: MIC90,1 µg/mL
same,Activity,Acinetobacter [22],89.1%
same,MIC50,Pseudomonas aeruginosa [41],0.25 µg/mL
same,MIC90,Pseudomonas aeruginosa [41],4 µg/mL
same,MIC50,Pseudomonas aeruginosa [23],0.25 µg/mL
same,MIC90,Pseudomonas aeruginosa [23],2 µg/mL
same,MIC50,Klebsiella pneumoniae [25],0.03 µg/mL
same,MIC90,Klebsiella pneumoniae [25],0.06 µg/mL
same,Activity,Escherichia coli [26],99.8%
same,Activity,Escherichia coli [27],100%
same,MIC50,Staphylococcus,1 µg/mL
same,MIC90,Staphylococcus,8 µg/mL
same,Activity,Acinetobacter [28],0%
same,MIC,Escherichia coli [29],≤ 0.015 µg/mL
same,MIC50,Escherichia coli [29],≤ 0.015 µg/mL
same,MIC90,Escherichia coli [29],0.03 µg/mL
same,Activity,Proteus mirabilis [42],98.9%
same,Activity,Klebsiella pneumoniae [43],99.6%
same,Activity,Pseudomonas aeruginosa [44],88.3%
same,Activity,Acinetobacter [45],73.4%
same,MIC50,Enterobacter cloacae,0.03 µg/mL
same,MIC90,Enterobacter cloacae,0.06 µg/mL
same,MIC50,Enterobacteriaceae [34],0.06 µg/mL
same,MIC90,Enterobacteriaceae [34],0.25 µg/mL
same,Activity,Klebsiella pneumoniae [35],99.7%
same,MIC,Escherichia coli [46],≤ 0.015 µg/mL
same,MIC50,Escherichia coli [46],≤ 0.015 µg/mL
same,MIC90,Escherichia coli [46],0.03 µg/mL
same,MIC50,Serratia marcescens [37],0.12 µg/mL
same,MIC90,Serratia marcescens [37],0.25 µg/mL
